Activity data for 7 compounds are collected here from ChEMBL document CHEMBL1150124, “Steroidal and pregnane glycosides from the rhizomes of Tacca chantrieri” (J Nat Prod, 2002).

Activity calls are given as the source filed them. The rule behind the calls is not given here.

This assay deals with HL-60. Nature of the assay: Cytotoxicity against human HL60 cells at 10 ug/mL. It is filed as functional, cell-based.
`CO[C@]1(CC[C@H](C)CO[C@@H]2O[C@H](CO)[C@@H](O)[C@H](O)[C@H]2O)O[C@H]2C[C@H]3[C@@H]4CC=C5C[C@@H](O[C@@H]6O[C@H](COC(C)=O)[C@@H](O)[C@H](O[C@@H]7O[C@@H](C)[C@H](O[C@@H]8O[C@H](CO)[C@@H](O)[C@H](O)[C@H]8O)[C@@H](O)[C@H]7O)[C@H]6O[C@@H]6O[C@@H](C)[C@H](O)[C@@H](O)[C@H]6O)CC[C@]5(C)[C@H]4CC[C@]3(C)[C@H]2[C@@H]1C`: the result was inactive.
As for `CO[C@]1(CC[C@H](C)CO[C@@H]2O[C@H](CO)[C@@H](O)[C@H](O)[C@H]2O)O[C@H]2C[C@H]3[C@@H]4CC=C5C[C@@H](O[C@@H]6O[C@H](CO)[C@@H](O)[C@H](O[C@@H]7O[C@@H](C)[C@H](O[C@@H]8O[C@H](CO)[C@@H](O)[C@H](O)[C@H]8O)[C@@H](O)[C@H]7O)[C@H]6O[C@@H]6O[C@@H](C)[C@H](O)[C@@H](O)[C@H]6O)CC[C@]5(C)[C@H]4CC[C@]3(C)[C@H]2[C@@H]1C`, the result was inactive.
In the case of `CC1=C(CC[C@H](C)CO[C@@H]2O[C@H](CO)[C@@H](O)[C@H](O)[C@H]2O)O[C@H]2C[C@H]3[C@@H]4CC=C5C[C@@H](O[C@@H]6O[C@H](CO)[C@@H](O)[C@H](O[C@@H]7O[C@@H](C)[C@H](O[C@@H]8O[C@H](CO)[C@@H](O)[C@H](O)[C@H]8O)[C@@H](O)[C@H]7O)[C@H]6O[C@@H]6O[C@@H](C)[C@H](O)[C@@H](O)[C@H]6O)CC[C@]5(C)[C@H]4CC[C@]3(C)[C@@H]12` it was “inactive”; in that of `CC(=O)OC[C@H]1O[C@@H](O[C@H]2CC[C@@]3(C)C(=CC[C@H]4[C@@H]5C[C@@H]6OC(CC[C@H](C)CO[C@@H]7O[C@H](CO)[C@@H](O)[C@H](O)[C@H]7O)=C(C)[C@@H]6[C@@]5(C)CC[C@@H]43)C2)[C@H](O[C@@H]2O[C@@H](C)[C@H](O)[C@@H](O)[C@H]2O)[C@@H](O[C@@H]2O[C@@H](C)[C@H](O[C@@H]3O[C@H](CO)[C@@H](O)[C@H](O)[C@H]3O)[C@@H](O)[C@H]2O)[C@@H]1O`, “inactive”; in that of `CC(=O)C1=CC[C@H]2[C@@H]3CC=C4C[C@@H](O[C@@H]5O[C@H](CO)[C@@H](O)[C@H](O[C@@H]6O[C@@H](C)[C@H](O[C@@H]7O[C@H](CO)[C@@H](O)[C@H](O)[C@H]7O)[C@@H](O)[C@H]6O)[C@H]5O[C@@H]5O[C@@H](C)[C@H](O)[C@@H](O)[C@H]5O)CC[C@]4(C)[C@H]3CC[C@]12C`, “inactive”.
For the compound `CO[C@]1(CC[C@H](C)CO[C@@H]2O[C@H](CO[C@@H]3O[C@H](CO)[C@@H](O)[C@H](O)[C@H]3O)[C@@H](O)[C@H](O)[C@H]2O)O[C@H]2C[C@H]3[C@@H]4CC=C5C[C@@H](O[C@@H]6O[C@H](CO)[C@@H](O)[C@H](O[C@@H]7O[C@@H](C)[C@H](O[C@@H]8O[C@H](CO)[C@@H](O)[C@H](O)[C@H]8O)[C@@H](O)[C@H]7O)[C@H]6O[C@@H]6O[C@@H](C)[C@H](O)[C@@H](O)[C@H]6O)CC[C@]5(C)[C@H]4CC[C@]3(C)[C@H]2[C@@H]1C`, the outcome was inactive.
Turning to `CC(=O)[C@H]1[C@@H](OC(=O)CC[C@H](C)CO[C@@H]2O[C@H](CO)[C@@H](O)[C@H](O)[C@H]2O)C[C@H]2[C@@H]3CC=C4C[C@@H](O[C@@H]5O[C@H](CO)[C@@H](O)[C@H](O[C@@H]6O[C@@H](C)[C@H](O[C@@H]7O[C@H](CO)[C@@H](O)[C@H](O)[C@H]7O)[C@@H](O)[C@H]6O)[C@H]5O[C@@H]5O[C@@H](C)[C@H](O)[C@@H](O)[C@H]5O)CC[C@]4(C)[C@H]3CC[C@@]21C`, the outcome was inactive.
